In US11390606B2, “Pyridazinone compounds and uses thereof” (Edgewise Therapeutics, Inc., priority 2018, dated 2022):

molecular target: T1, skeletal myofibrils (Rabbit Psoas), myosin ATPase activity; test: Skeletal Myofibril ATPase Assay; type: biochemical; details: skeletal myofibrils (Rabbit Psoas 0.25 mg/mL), PK/LDH-coupled NADH absorbance at 340 nm
T1 construct: Rabbit Psoas Prep 11 (0.25 mg/mL)
Protocol: Overview: Myosin ATPase activity is assessed by using a coupled reaction system, in which ADP generated by the myosin ATPase function is coupled to the disappearance of NADH through the pyruvate kinase/lactate dehydrogenase (PK-LDH) system. Myosin ATPase activity produces ADP, which is used as a substrate for PK to produce pyruvate and regenerate ATP. The pyruvate is then used as a substrate by LDH to oxidize NADH to NAD+. The rate of the reaction is monitored through the time-dependent disappearance of NADH using absorbance at 340 nm. Inhibition of ATPase activity by the assayed compounds is indicated by a reduced rate of NADH loss, relative to vehicle-treated controls, over the experimental time window. To assess the selectivity of the assayed compounds for skeletal myofibrils, the compounds are counter-screened in cardiac myofibrils.
Materials: The following stock solutions and reagents were used in the Skeletal Myofibril ATPase Assay:
Stock Solutions of pCa buffer. Combine PIPES, CaCl2, and EGTA solutions with 70 mL of water. Adjust pH to 7.0 and bring final volume to 100 mL.
Buffer A & Buffer B. Buffers were stored on ice until use.
Skeletal Myofibril ATPase Assay Procedure: BSA, ATP, NADH, PEP, and DTT solutions were thawed at room temperature, then transferred to ice. Pellet-frozen myofibrils were transferred with approximately twice the required volume into a sufficiently large tube and capped. Myofibrils were thawed by rolling in a water bath for approximately 15 min at room temperature and cooled on ice. Buffers A and B were prepared by adjusting volumes as necessary for required number of wells and stored on ice. 0.5 μL of the compounds to be assayed were added into wells. 25 μL of Buffer A was dispensed into the wells, followed by 25 μL of Buffer B. The wells were measured for absorbance at 340 nm, using a kinetic protocol in which the wells are read every 1.5-2 min for 45 min. The slope of the data was approximated by subtracting the minimum absorbance value from the maximum value for each well. This was accomplished either in the SoftMax Pro software or in a spreadsheet program such as Excel. Using GraphPad Prism 8.0, the data was normalized by assigning a value of 100% to the 1% DMSO vehicle wells. Typically, a normalized 0% value was simply assigned to a (Max−Min) value of 0. The normalized data was fit to a Four Parameter Logistic sigmoidal equation, constraining the bottom to be 0 or greater. Compounds of Table 1 to 4 were tested and results of the assay appear in Table 5 herein. A=IC50 is less than or equal to 10 μM; B=IC50 is greater than 10 μM and less than 100 μM; C=IC50 is greater than 100 μM.

| IC50 [µM] | SMILES |
| --- | --- |
| 10 to 100 | O=c1ccc(-c2ccc(F)cc2)nn1Cc1ccccc1F [Compound 243, 2-(2-fluorobenzyl)-6-(4-fluorophenyl)pyridazin-3(2H)-one] |
| 10 to 100 | O=c1ccc(-c2ccc(F)cc2)nn1Cc1ccc(F)cc1 [Compound 244, 2-(4-fluorobenzyl)-6-(4-fluorophenyl)pyridazin-3(2H)-one] |
| < 10 | O=c1ccc(-c2ccc(F)cc2)nn1Cc1ccc(Cl)cc1 [Compound 300, 2-(4-chlorobenzyl)-6-(4-fluorophenyl)pyridazin-3(2H)-one] |
| < 10 | Cc1ccc(-c2ccc(=O)n(Cc3ccc(Cl)cc3)n2)cc1 [Compound 301, 2-(4-chlorobenzyl)-6-(p-tolyl)pyridazin-3(2H)-one] |
| < 10 | O=c1ccc(-c2ccc(Cl)cc2)nn1Cc1ccccc1 [Compound 302, 2-benzyl-6-(4-chlorophenyl)pyridazin-3(2H)-one] |
| < 10 | O=c1ccc(-c2ccc(Cl)cc2)nn1Cc1ccc(Cl)cc1 [Compound 303, 2-(4-chlorobenzyl)-6-(4-chlorophenyl)pyridazin-3(2H)-one] |
| < 10 | O=c1ccc(-c2ccc(Cl)nc2)nn1Cc1ccc(Cl)cc1 [Compound 304, 2-(4-chlorobenzyl)-6-(6-chloropyridin-3-yl)pyridazin-3(2H)-one] |
| > 100 | O=c1ccc(-c2ccc(Cl)cc2)nn1Cc1ccc(C(F)(F)F)cc1 [Compound 305, 6-(4-chlorophenyl)-2-(4-(trifluoromethyl)benzyl)pyridazin-3(2H)-one] |
| < 10 | O=c1ccc(-c2ccc(Cl)cc2)nn1Cc1ccc(F)cc1 [Compound 306, 6-(4-chlorophenyl)-2-(4-fluorobenzyl)pyridazin-3(2H)-one] |
| < 10 | O=c1ccc(-c2ccc(Cl)cc2)nn1Cc1cccc(Cl)c1 [Compound 307, 2-(3-chlorobenzyl)-6-(4-chlorophenyl)pyridazin-3(2H)-one] |
| < 10 | Cc1ccccc1Cn1nc(-c2ccc(Cl)cc2)ccc1=O [Compound 308, 6-(4-chlorophenyl)-2-(2-methylbenzyl)pyridazin-3(2H)-one] |
| < 10 | O=c1ccc(-c2ccc(Cl)cc2)nn1Cc1ccccc1F [Compound 309, 6-(4-chlorophenyl)-2-(2-fluorobenzyl)pyridazin-3(2H)-one] |
| < 10 | O=c1ccc(-c2ccc(Cl)cc2)nn1Cc1ccccc1Cl [Compound 310, 2-(2-chlorobenzyl)-6-(4-chlorophenyl)pyridazin-3(2H)-one] |
| < 10 | Cc1ccc(Cn2nc(-c3ccc(Cl)cc3)ccc2=O)cc1 [Compound 311, 6-(4-chlorophenyl)-2-(4-methylbenzyl)pyridazin-3(2H)-one] |
| < 10 | CCCc1ccc(-c2ccc(=O)n(Cc3ccc(Cl)cc3)n2)cc1 [Compound 312, 2-(4-chlorobenzyl)-6-(4-propylphenyl)pyridazin-3(2H)-one] |
| < 10 | CCc1ccc(-c2ccc(=O)n(Cc3ccc(Cl)cc3)n2)cc1 [Compound 313, 2-(4-chlorobenzyl)-6-(4-ethylphenyl)pyridazin-3(2H)-one] |
| < 10 | Cc1cccc(Cn2nc(-c3ccc(Cl)cc3)ccc2=O)c1 [Compound 314, 6-(4-chlorophenyl)-2-(3-methylbenzyl)pyridazin-3(2H)-one] |
| > 100 | C[C@@H](c1ccccc1)n1nc(-c2ccc(Cl)cc2)ccc1=O [Compound 315, (S)-6-(4-chlorophenyl)-2-(1-phenylethyl)pyridazin-3(2H)-one] |
| > 100 | COc1cc(F)ccc1-c1ccc(=O)n(Cc2ccc(Cl)cc2)n1 [Compound 316, 2-(4-chlorobenzyl)-6-(4-fluoro-2-methoxyphenyl)pyridazin-3(2H)-one] |
| < 10 | O=c1ccc(-c2ccc(Cl)cc2)nn1Cc1cccc(F)c1 [Compound 317, 6-(4-chlorophenyl)-2-(3-fluorobenzyl)pyridazin-3(2H)-one] |

The remaining lines, values behind:

| SMILES | IC50 [µM] |
| --- | --- |
| Cn1ncc2cc(-c3ccc(=O)n(Cc4ccc(Cl)cc4)n3)ccc21 [Compound 119, 2-(4-chlorobenzyl)-6-(1-methyl-1H-indazol-5-yl)pyridazin-3(2H)-one] | > 100 |
| CN(C)S(=O)(=O)c1ccc(-c2ccc(=O)n(Cc3ccc(Cl)cc3)n2)cc1 [Compound 120, 4-(1-(4-chlorobenzyl)-6-oxo-1,6-dihydropyridazin-3-yl)-N,N-dimethyl-benzenesulfonamide] | > 100 |
| CC1(C)C(=O)Nc2ccc(-c3ccc(=O)n(Cc4ccc(Cl)cc4)n3)cc21 [Compound 121, 5-(1-(4-chlorobenzyl)-6-oxo-1,6-dihydropyridazin-3-yl)-3,3-dimethylindolin-2-one] | > 100 |
| O=C1Cc2cc(-c3ccc(=O)n(Cc4ccc(Cl)cc4)n3)ccc2N1 [Compound 122, 5-(1-(4-chlorobenzyl)-6-oxo-1,6-dihydropyridazin-3-yl)indolin-2-one] | > 100 |
| CNc1ccc(-c2ccc(=O)n(Cc3ccc(Cl)cc3)n2)cc1 [Compound 123, 2-(4-chlorobenzyl)-6-(4-(methylamino)phenyl)pyridazin-3(2H)-one] | < 10 |
| COc1ccc(Cn2nc(-c3ccc(SC)cc3)ccc2=O)cc1 [Compound 201, 2-(4-methoxybenzyl)-6-(4-(methylthio)phenyl)pyridazin-3(2H)-one] | > 100 |
| C=Cc1ccc(Cn2nc(-c3ccc(OC)cc3F)ccc2=O)cc1 [Compound 202, 6-(2-fluoro-4-methoxyphenyl)-2-(4-vinylbenzyl)pyridazin-3(2H)-one] | > 100 |
| COc1ccc(-c2ccc(=O)n(Cc3ccccc3)n2)cc1 [Compound 211, 2-benzyl-6-(4-methoxyphenyl)pyridazin-3(2H)-one] | < 10 |
| COc1ccc(-c2ccc(=O)n(Cc3ccc(Cl)cc3)n2)cc1 [Compound 212, 2-(4-chlorobenzyl)-6-(4-methoxyphenyl)pyridazin-3(2H)-one] | < 10 |
| CCOc1ccc(-c2ccc(=O)n(Cc3ccc(Cl)cc3)n2)cc1 [Compound 213, 2-(4-chlorobenzyl)-6-(4-ethoxyphenyl)pyridazin-3(2H)-one] | < 10 |
| CCCOc1ccc(-c2ccc(=O)n(Cc3ccc(Cl)cc3)n2)cc1 [Compound 218, 2-(4-chlorobenzyl)-6-(4-propoxyphenyl)pyridazin-3(2H)-one] | < 10 |
| COc1ccc(Cn2nc(-c3ccc(Cl)cc3)ccc2=O)cc1 [Compound 235, 6-(4-chlorophenyl)-2-(4-methoxybenzyl)pyridazin-3(2H)-one] | < 10 |
| Cc1ccc(-c2ccc(=O)n(Cc3ccc(F)cc3)n2)cc1 [Compound 236, 2-(4-fluorobenzyl)-6-(p-tolyl)pyridazin-3(2H)-one] | < 10 |
| COc1ccc(Cn2nc(-c3ccc(Br)cc3)ccc2=O)cc1 [Compound 237, 6-(4-bromophenyl)-2-(4-methoxybenzyl)pyridazin-3(2H)-one] | < 10 |
| N#Cc1ccc(Cn2nc(-c3ccc(Br)cc3)ccc2=O)cc1 [Compound 238, 4-((3-(4-bromophenyl)-6-oxopyridazin-1(6H)-yl)methyl)benzonitrile] | 10 to 100 |
| O=c1ccc(-c2ccc(Br)cc2)nn1Cc1ccccc1 [Compound 239, 2-benzyl-6-(4-bromophenyl)pyridazin-3(2H)-one] | < 10 |
| COc1ccc(Cn2nc(-c3ccc(F)cc3)ccc2=O)cc1 [Compound 240, 6-(4-fluorophenyl)-2-(4-methoxybenzyl)pyridazin-3(2H)-one] | 10 to 100 |
| O=c1ccc(-c2ccc(F)cc2)nn1Cc1cccc(C(F)(F)F)c1 [Compound 241, 6-(4-fluorophenyl)-2-(3-(trifluoromethyl)benzyl)pyridazin-3(2H)-one] | > 100 |
| O=c1ccc(-c2ccc(F)cc2)nn1Cc1cccc(F)c1 [Compound 242, 2-(3-fluorobenzyl)-6-(4-fluorophenyl)pyridazin-3(2H)-one] | < 10 |

test system: embryos from zebrafish model of DMD; test: not given; details: Li and Amer, PLoSONE, 2015; cited from earlier work

| SMILES | protection of muscles from pathological muscle derangement |
| --- | --- |
| Cc1ccc(S(=O)(=O)NCc2ccccc2)cc1 [BTS, N-benzyl-p-tolyl-sulfonamide] | protect muscles from pathological muscle derangement |
